Data on eleven compounds can be found in patent US20260217683A1, “PYRIDAZINONE HETEROCYCLIC COMPOUND MYOSIN II INHIBITOR AND USE THEREOF” (Xizang Haisco Pharmaceutical Co., Ltd., priority 2023, published 2026).

In series [1] the target is T1, CYP2C19 (Homo sapiens, UniProt P33261).
T1 construct: incubated with human liver microsomes and test compounds of different concentrations; from tissue; host or cells: human liver microsomes
Description: CYP450 enzyme inhibition, human liver microsomes, CYP2C19. The class given is in vitro ADME. The protocol:
(§1) The purpose of this study was to evaluate the effect of the test compound on the activity of five isoenzymes (CYP1A2, CYP2C9, CYP2C19, CYP2D6 and CYP3A4) of human liver microsomal cytochrome P450 (CYP) by using an in vitro testing system. The specific probe substrates of CYP450 isoenzymes were incubated with human liver microsomes and test compounds of different concentrations, and reduced nicotinamide adenine dinucleotide phosphate (NADPH) was added to initiate the reaction. After the completion of the reaction, the sample was treated and liquid chromatography-tandem mass spectrometry (LC-MS/MS) was used to quantitatively detect metabolites produced by specific substrates, changes in CYP enzyme activity were determined, and IC50 value was calculated to evaluate the inhibitory potential of the test compound on each CYP enzyme subtype.
For orientation: Microsomes from liver hold many membrane-bound enzymes, among them those of drug oxidation.

The target of series [2] is T2, CYP2C9 (Homo sapiens, UniProt P11712).
T2 construct: incubated with human liver microsomes and test compounds of different concentrations; from tissue; host or cells: human liver microsomes
Description: CYP450 enzyme inhibition, human liver microsomes, CYP2C9. In kind it is in vitro ADME. The protocol:
as §1

Series [3] in a line: Pharmacokinetic experiment in mouse muscle tissue (tibialis anterior / plasma). In kind it is in vivo, C57 mice. Particulars: male, C57, tibialis anterior muscle / plasma, oral, intragastric 10 mg/kg, read-out: Ratio = Tibialis anterior Conc./Plasma Conc. The protocol:
1. Experimental animals: Male C57 mice, 22-25 g, 6 mice/compound. Purchased from Chengdu Ddossy Experimental Animals Co., Ltd.
2. Experimental design: On the day of the experiment, C57 mice were randomly grouped according to their body weight. The animals were fasted with water available for 12 to 14 h one day before the administration and were fed 4 h after the administration. Administration was performed as per Table 10.1.

Series [4] addresses T3, CYP2D6 (Homo sapiens, UniProt P10635).
T3 construct: incubated with human liver microsomes and test compounds of different concentrations; from tissue; host or cells: human liver microsomes
Nature of the series: CYP450 enzyme inhibition, human liver microsomes, CYP2D6. In kind it is in vitro ADME. The protocol: as §1

The target of series [5] is T4, smooth muscle myosin S1 (Gallus gallus, UniProt P10587).
T4 construct: purchased Cytoskeleton #CS-MYS05
Nature of the series: Inhibition of hydrolysis of ATP by smooth muscle myosin S1 fragments. The class given is biochemical. Particulars: 100 μM compound. The method, boiled down: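 Smooth muscle myosin S1 fragment (0.7 mg/mL in PM12 buffer with 1 mM DTT) was mixed with compound and F-actin polymer prepared from cardiac actin, then 5 mM ATP working solution started the reaction at 37° C. for 20 min. Released Pi was measured with CytoPhos reagent at 650 nm against a standard curve, and inhibition was calculated relative to positive control wells.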

Series [6] deals with T5, hERG potassium ion channel (Homo sapiens, UniProt Q12809).
T5 construct: expressed in transfected cells
Description: Effect on hERG potassium ion channel (manual patch-clamp, CHO cells). In kind it is cell-based. Particulars: CHO cells stably expressing hERG, whole cell patch-clamp; read-out: IC50 of the inhibitory effect on hERG potassium channel current. The text has this:
1. Experimental platform: electrophysiological manual patch-clamp system
2. Cell line: Chinese hamster ovary (CH—O) cell lines stably expressing hERG potassium ion channel
3. Experimental method: in CHO (Chinese Hamster Ovary) cells stably expressing hERG potassium channel, whole cell patch-clamp technique was used to record hERG potassium channel current at room temperature. The glass microelectrode was made of a glass electrode blank (BF150-86-10, Sutter) by a puller. The tip resistance after filling the liquid in the electrode was about 2-5 MQ. The glass microelectrode can be connected to the patch-clamp amplifier by inserting the glass microelectrode into an amplifier probe. The clamping voltage and data recording were controlled and recorded by the pClamp 10 software through a computer. The sampling frequency was 10 kHz, and the filtering frequency was 2 kHz. After the whole cell records were obtained, the cells were clamped at −80 mV, and the step voltage that induced the hERG potassium current (IhERG) was depolarized from −80 mV to +20 mV for 2 s, then repolarized to −50 mV, and returned to −80 mV after 1 s. This voltage stimulation was given every 10 s, and the administration process was started after the hERG potassium current was confirmed to be stable (at least 1 minute). The compound was administered for at least 1 minute at each test concentration, and at least 2 cells (n≥2) were tested at each concentration.
4. Data processing: Data analysis processing was carried out by using pClamp 10, GraphPad Prism 5 and Excel software. The inhibition degree of hERG potassium current (peak value of hERG tail current induced at −50 mV) at different compound concentrations was calculated by the following formula:
[formula] • where Inhibition % represents the percentage of inhibition of hERG potassium current by the compound, and I and Io represent the amplitude of hERG potassium current after and before the administration, respectively.
Compound IC50 was calculated using GraphPad Prism 5 software by fitting according to the following equation: […]
Among the equation, X represents the Log value of the tested concentration of the test sample, Y represents the inhibition percentage at the corresponding concentration, and Bottom and Top represent the minimum and maximum inhibition percentage, respectively.
(Block of hERG is tested as a sign of cardiac risk.)

Each structure is given as a SMILES string.

T2 sequence (P11712 whole entry): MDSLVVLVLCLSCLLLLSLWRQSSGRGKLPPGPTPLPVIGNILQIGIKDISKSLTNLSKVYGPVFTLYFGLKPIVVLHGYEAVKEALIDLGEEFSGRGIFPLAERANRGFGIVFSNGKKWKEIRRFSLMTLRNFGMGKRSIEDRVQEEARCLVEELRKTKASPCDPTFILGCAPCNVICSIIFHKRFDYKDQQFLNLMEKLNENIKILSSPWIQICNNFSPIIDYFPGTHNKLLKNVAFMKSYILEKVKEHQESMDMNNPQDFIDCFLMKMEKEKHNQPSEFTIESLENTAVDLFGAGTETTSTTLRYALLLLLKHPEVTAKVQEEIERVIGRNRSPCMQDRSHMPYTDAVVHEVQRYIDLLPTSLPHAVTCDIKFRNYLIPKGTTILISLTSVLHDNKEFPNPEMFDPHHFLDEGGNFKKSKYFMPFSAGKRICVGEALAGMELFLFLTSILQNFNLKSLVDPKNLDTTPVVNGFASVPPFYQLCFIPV
T5 sequence (Q12809 whole entry): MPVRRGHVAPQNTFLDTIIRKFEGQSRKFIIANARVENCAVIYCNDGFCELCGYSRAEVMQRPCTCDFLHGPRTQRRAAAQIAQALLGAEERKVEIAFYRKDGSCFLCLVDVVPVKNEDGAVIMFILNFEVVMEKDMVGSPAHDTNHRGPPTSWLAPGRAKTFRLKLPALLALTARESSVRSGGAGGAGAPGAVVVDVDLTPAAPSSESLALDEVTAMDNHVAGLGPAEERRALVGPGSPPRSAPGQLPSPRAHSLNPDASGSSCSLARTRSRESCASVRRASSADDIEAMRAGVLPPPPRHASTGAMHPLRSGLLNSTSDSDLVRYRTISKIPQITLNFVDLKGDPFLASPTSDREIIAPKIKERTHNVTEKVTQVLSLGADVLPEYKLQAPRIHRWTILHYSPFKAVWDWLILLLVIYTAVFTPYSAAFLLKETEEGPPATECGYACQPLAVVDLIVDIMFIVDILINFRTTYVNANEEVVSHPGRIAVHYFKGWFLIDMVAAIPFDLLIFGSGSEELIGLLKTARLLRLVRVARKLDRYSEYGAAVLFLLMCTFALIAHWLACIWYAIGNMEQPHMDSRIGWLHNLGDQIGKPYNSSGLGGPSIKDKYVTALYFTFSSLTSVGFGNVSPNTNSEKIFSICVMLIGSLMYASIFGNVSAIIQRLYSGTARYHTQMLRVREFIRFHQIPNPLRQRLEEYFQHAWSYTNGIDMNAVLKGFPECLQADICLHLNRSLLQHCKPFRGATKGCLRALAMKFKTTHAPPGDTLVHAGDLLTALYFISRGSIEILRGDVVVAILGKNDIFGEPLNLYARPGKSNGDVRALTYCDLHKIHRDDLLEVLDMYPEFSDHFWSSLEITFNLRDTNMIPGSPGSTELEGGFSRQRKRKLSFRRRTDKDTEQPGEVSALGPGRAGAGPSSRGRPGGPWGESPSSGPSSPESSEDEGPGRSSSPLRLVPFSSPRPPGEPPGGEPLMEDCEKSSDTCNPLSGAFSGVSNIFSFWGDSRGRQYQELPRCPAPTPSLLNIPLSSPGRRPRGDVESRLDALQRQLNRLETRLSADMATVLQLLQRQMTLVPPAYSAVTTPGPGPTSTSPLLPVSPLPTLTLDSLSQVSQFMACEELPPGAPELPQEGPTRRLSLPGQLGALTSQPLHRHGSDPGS
T3 sequence (P10635 whole entry): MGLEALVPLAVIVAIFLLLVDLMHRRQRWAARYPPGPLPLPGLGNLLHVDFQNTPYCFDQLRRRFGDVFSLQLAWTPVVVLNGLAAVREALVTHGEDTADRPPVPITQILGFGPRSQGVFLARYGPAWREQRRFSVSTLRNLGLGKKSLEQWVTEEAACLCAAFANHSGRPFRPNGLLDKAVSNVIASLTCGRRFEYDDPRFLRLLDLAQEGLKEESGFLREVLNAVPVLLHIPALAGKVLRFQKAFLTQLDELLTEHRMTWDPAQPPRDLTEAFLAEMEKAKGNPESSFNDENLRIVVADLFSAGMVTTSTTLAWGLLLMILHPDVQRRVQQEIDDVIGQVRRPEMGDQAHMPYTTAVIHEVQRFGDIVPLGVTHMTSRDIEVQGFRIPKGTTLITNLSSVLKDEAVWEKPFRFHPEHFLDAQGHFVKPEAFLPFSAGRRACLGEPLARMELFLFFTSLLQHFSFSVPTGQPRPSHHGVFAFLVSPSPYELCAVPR
T4 sequence (P10587 84-789 limits assumed): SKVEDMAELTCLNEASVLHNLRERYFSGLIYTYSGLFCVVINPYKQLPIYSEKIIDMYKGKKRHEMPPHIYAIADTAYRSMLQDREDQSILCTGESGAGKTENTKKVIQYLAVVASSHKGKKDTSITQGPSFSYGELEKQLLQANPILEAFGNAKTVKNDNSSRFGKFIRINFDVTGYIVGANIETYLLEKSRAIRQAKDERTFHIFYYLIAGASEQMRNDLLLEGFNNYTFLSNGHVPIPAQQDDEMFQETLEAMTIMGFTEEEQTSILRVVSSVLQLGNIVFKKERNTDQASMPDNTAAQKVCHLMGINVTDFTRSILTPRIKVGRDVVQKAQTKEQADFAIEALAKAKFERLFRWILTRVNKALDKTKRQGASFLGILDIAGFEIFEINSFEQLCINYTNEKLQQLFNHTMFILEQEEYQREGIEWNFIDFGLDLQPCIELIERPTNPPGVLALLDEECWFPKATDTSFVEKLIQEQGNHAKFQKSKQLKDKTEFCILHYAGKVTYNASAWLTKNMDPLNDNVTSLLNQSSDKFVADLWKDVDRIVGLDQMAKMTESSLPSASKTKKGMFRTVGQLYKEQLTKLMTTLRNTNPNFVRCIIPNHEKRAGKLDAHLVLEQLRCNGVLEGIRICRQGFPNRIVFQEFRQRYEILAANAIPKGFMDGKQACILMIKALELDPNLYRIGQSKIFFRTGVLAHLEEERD
T4 sequence (P02607 whole entry partner): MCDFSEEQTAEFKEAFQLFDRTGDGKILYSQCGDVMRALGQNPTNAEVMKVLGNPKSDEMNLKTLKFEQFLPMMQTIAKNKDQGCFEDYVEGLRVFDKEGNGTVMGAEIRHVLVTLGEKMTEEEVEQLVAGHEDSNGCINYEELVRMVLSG
T1 sequence (P33261 whole entry): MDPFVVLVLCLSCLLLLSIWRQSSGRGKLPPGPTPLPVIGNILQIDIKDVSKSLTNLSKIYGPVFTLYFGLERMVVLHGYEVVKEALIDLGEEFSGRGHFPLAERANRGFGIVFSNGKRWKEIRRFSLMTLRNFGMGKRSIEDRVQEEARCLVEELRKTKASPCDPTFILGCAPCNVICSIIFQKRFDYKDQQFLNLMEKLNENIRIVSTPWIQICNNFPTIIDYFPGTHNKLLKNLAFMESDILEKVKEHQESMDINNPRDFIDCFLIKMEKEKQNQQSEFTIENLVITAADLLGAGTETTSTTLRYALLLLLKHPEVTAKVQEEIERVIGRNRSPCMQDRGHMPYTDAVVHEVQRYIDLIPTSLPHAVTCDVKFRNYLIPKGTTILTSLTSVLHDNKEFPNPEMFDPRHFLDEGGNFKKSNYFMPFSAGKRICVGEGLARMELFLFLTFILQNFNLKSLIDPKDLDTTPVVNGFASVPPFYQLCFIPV

In general, IC50 refers to the concentration at which inhibition is half-maximal. For `O=C1CCc2ccc(Cn3nc(-c4cnc(OCC(F)(F)F)nc4)ccc3=O)cc21` [Compound 88], the 50% inhibitory concentration (IC50) in series [1], in series [2] and in series [4] was more than 30 µM throughout. Besides, the Kp at 6 h in series [3] worked out at 63.5. Moreover, the Kp at 24 h in series [3] was 81.1.
Broadly, the inhibition is the change of the read-out against control, counted positive when it falls. For the compound `O=C1CCc2c(F)cc(Cn3nc(-c4cnc(O[C@H]5CCOC5)nc4)ccc3=O)cc21` [Compound 165], the inhibition at 100 µM in series [5] was 12%. Further, the IC50 was more than 30 µM in series [1], more than 40 µM in series [6], more than 30 µM in series [2] and more than 30 µM in series [4].
For `O=C1CCc2ccc(Cn3nc(-c4cnc(O[C@H]5CCOC5)nc4)ccc3=O)cc21` [Compound 150], the inhibition at 100 µM in series [5] came to 4%. The IC50 in series [6] is more than 40 µM. Further, in series [3], the Kp at 6 h was found to be 82.2 and the Kp at 24 h worked out at 140.
On to `O=C1CCc2ccc(Cn3nc(-c4cnc(OC5CC(F)(F)C5)nc4)ccc3=O)cc21` [Compound 141], for which the inhibition at 100 µM in series [5] is 3%. Further, the IC50 in series [1], in series [2] and in series [4] was more than 30 µM in each case. The Kp at 6 h in series [3] stood at 89.9. Besides, the Kp at 24 h in series [3] came to 116.
With `O=C1CCc2c(F)cc(Cn3nc(-c4cnc(OCC(F)F)nc4)ccc3=O)cc21` [Compound 167], the inhibition at 100 µM in series [5] is 17%. Moreover, the IC50 in series [1], in series [2] and in series [4] was more than 30 µM in each case.
In the case of `O=C1CCc2ccc(Cn3nc(-c4cnc(OCC(F)F)nc4)ccc3=O)cc21` [Compound 131], the inhibition at 100 µM in series [5] is -9%. The IC50 in series [1], in series [2] and in series [4] was more than 30 µM each time. The Kp at 6 h in series [3] turned out to be 136. Besides, in series [3], the Kp at 24 h turned out to be 158.
In the case of `O=C1CCc2ccc(Cn3nc(-c4cnc(Oc5cncc(Cl)c5)nc4)ccc3=O)cc21` [Compound 151], in series [5], the inhibition at 100 µM worked out at 2%. The IC50 in series [1], in series [2] and in series [4] was more than 30 µM in each case.
Consider `O=C1CCc2ccc(Cn3nc(-c4cnc(O[C@@H]5CCOC5)nc4)ccc3=O)cc21` [Compound 149], for which the inhibition at 100 µM in series [5] was 2%. For the same compound, the IC50 in series [1], in series [2] and in series [4] was more than 30 µM in each case. Further, in series [3], the Kp at 6 h is 113. Also, in series [3], the Kp at 24 h was determined as 171.
With `O=c1ccc(-c2cnc(OCC(F)(F)F)nc2)nn1Cc1ccc2c(c1)CCC2` [Compound 57], the inhibition at 100 µM in series [5] came out at 3.3%. Further, the IC50 in series [6] was more than 40 µM.
For `O=C1CCc2ccc(Cn3nc(-c4cnc(OC5COCC5(F)F)nc4)ccc3=O)cc21` (stereo not shown) [Compound 164], the inhibition at 100 µM in series [5] turned out to be 17%. The IC50 in series [1] is more than 30 µM; in series [6], more than 40 µM; in series [2] it was more than 30 µM; in series [4], more than 30 µM.
Take `N#CC1(COc2ncc(-c3ccc(=O)n(Cc4ccc5c(c4)C(=O)CC5)n3)cn2)CC1` [Compound 158]: the inhibition at 100 µM in series [5] came out at 13%. Also, the IC50 was more than 30 µM in series [1], more than 40 µM in series [6], more than 30 µM in series [2] and more than 30 µM in series [4].
